The text below walks through data of ChEMBL document CHEMBL4340543, “Synthesis and biological evaluation of new HIV-1 protease inhibitors with purine bases as P2-ligands” (Bioorg Med Chem Lett, 2019).

For the assay, the target named is Protease (Human immunodeficiency virus 1, UniProt Q9YQ12). Kind of assay: Inhibition of wild type HIV1 protease expressed in Escherichia coli using Arg-Glu (EDANS)-Ser-Gln-Asn-Tyr-Pro-Ile-Val-Gln-Lys(DABCYL)-Arg as substrate preincubated for 20 to 30 mins followed by substrate addition and measured for 10 mins by FRET assay.
Sequence of Protease (Q9YQ12 whole entry): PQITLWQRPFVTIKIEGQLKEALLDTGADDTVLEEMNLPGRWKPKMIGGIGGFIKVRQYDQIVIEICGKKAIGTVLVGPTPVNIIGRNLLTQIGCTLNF

With `CC(C)CN(C[C@@H](O)[C@H](Cc1ccccc1)NC(=O)Cn1cnc2c(N)ncnc21)S(=O)(=O)c1ccc([N+](=O)[O-])cc1`, the half-inhibitory concentration (IC50) was found to be 3580 nM. In turn, `CC(C)CN(C[C@@H](O)[C@H](Cc1ccccc1)NC(=O)Cn1cnc2cnc(N)nc21)S(=O)(=O)c1ccc([N+](=O)[O-])cc1` showed an IC50 of 3680 nM.

The molecule `CC(C)CN(C[C@@H](O)[C@H](Cc1ccccc1)NC(=O)Cn1cnc2c(Cl)nc(N)nc21)S(=O)(=O)c1ccc(N)cc1` registered an IC50 of 11700 nM. This IC50 is about 3.2-fold higher than that of the molecule before.

On to `CC(C)CN(C[C@@H](O)[C@H](Cc1ccccc1)NC(=O)Cn1cnc2cncnc21)S(=O)(=O)c1ccc(N)cc1`, for which the IC50 was determined as 570 nM. Regarding `Cc1nc2cncnc2n1CC(=O)N[C@@H](Cc1ccccc1)[C@H](O)CN(CC(C)C)S(=O)(=O)c1ccc(N)cc1`, the IC50 was 640 nM. As for `COc1ncnc2c1ncn2CC(=O)N[C@@H](Cc1ccccc1)[C@H](O)CN(CC(C)C)S(=O)(=O)c1ccc([N+](=O)[O-])cc1`, the IC50 came out at 2600 nM.

The molecule `COc1ccc(S(=O)(=O)N(CC(C)C)C[C@@H](O)[C@H](Cc2ccccc2)NC(=O)Cn2cnc3c(N)ncnc32)cc1` showed an IC50 of 1980 nM. This IC50 and that of the molecule before are within 1.5-fold of each other. For the molecule `CC(C)CN(C[C@@H](O)[C@H](Cc1ccccc1)NC(=O)Cn1cnc2c(Cl)ncnc21)S(=O)(=O)c1ccc(N)cc1`, half-maximal inhibition (IC50) required 7020 nM. Regarding `CC(C)CN(C[C@@H](O)[C@H](Cc1ccccc1)NC(=O)Cn1cnc2c(O)ncnc21)S(=O)(=O)c1ccc(N)cc1`, the 50% inhibitory concentration (IC50) worked out at 1810 nM. Against the preceding molecule, the IC50 is about 3.9-fold lower.

In turn, `CC(C)CN(C[C@@H](O)[C@H](Cc1ccccc1)NC(=O)Cn1cnc2c(Cl)nc(N)nc21)S(=O)(=O)c1ccc([N+](=O)[O-])cc1` yielded a 50% inhibitory concentration (IC50) of 960 nM. The molecule `COc1nc(N)nc2c1ncn2CC(=O)N[C@@H](Cc1ccccc1)[C@H](O)CN(CC(C)C)S(=O)(=O)c1ccc([N+](=O)[O-])cc1` showed an IC50 of 1730 nM. `Cc1ncnc2c1ncn2CC(=O)N[C@@H](Cc1ccccc1)[C@H](O)CN(CC(C)C)S(=O)(=O)c1ccc(N)cc1` yielded an IC50 of 3760 nM. In turn, `CC(C)CN(C[C@@H](O)[C@H](Cc1ccccc1)NC(=O)Cn1cnc2cnc(N)nc21)S(=O)(=O)c1ccc(N)cc1` returned an IC50 of 6790 nM. This IC50 is about 1.8-fold higher than that of the molecule before. Molecule `CC(C)CN(C[C@@H](O)[C@H](Cc1ccccc1)NC(=O)Cn1cnc2c(O)ncnc21)S(=O)(=O)c1ccc([N+](=O)[O-])cc1` returned an IC50 of 2430 nM.

Turning to `Cc1nc2cncnc2n1CC(=O)N[C@@H](Cc1ccccc1)[C@H](O)CN(CC(C)C)S(=O)(=O)c1ccc([N+](=O)[O-])cc1`, the half-inhibitory concentration (IC50) came out at 570 nM. On to `CC(C)CN(C[C@@H](O)[C@H](Cc1ccccc1)NC(=O)Cn1cnc2c(O)nc(N)nc21)S(=O)(=O)c1ccc([N+](=O)[O-])cc1`, for which the IC50 was determined as 790 nM. `COc1ccc(S(=O)(=O)N(CC(C)C)C[C@@H](O)[C@H](Cc2ccccc2)NC(=O)Cn2c(C)nc3cncnc32)cc1` showed an IC50 of 150 nM. Against the preceding molecule, the IC50 is about 5.3-fold lower.

On to `COc1ccc(S(=O)(=O)N(CC(C)C)C[C@@H](O)[C@H](Cc2ccccc2)NC(=O)Cn2cnc3cncnc32)cc1`, for which the IC50 amounted to 240 nM. As for `COc1ccc(S(=O)(=O)N(CC(C)C)C[C@@H](O)[C@H](Cc2ccccc2)NC(=O)Cn2cnc3c(OC)ncnc32)cc1`, the IC50 worked out at 180 nM. As for `CC(C)CN(C[C@@H](O)[C@H](Cc1ccccc1)NC(=O)Cn1cnc2c(Cl)ncnc21)S(=O)(=O)c1ccc([N+](=O)[O-])cc1`, the figure is 310 nM. As for `COc1ncnc2c1ncn2CC(=O)N[C@@H](Cc1ccccc1)[C@H](O)CN(CC(C)C)S(=O)(=O)c1ccc(N)cc1`, the figure is 1510 nM. As for `COc1ccc(S(=O)(=O)N(CC(C)C)C[C@@H](O)[C@H](Cc2ccccc2)NC(=O)Cn2cnc3c(OC)nc(N)nc32)cc1`, the figure is 460 nM; as for `COc1ccc(S(=O)(=O)N(CC(C)C)C[C@@H](O)[C@H](Cc2ccccc2)NC(=O)Cn2cnc3c(O)nc(N)nc32)cc1`, 80 nM; as for `CC(C)CN(C[C@@H](O)[C@H](Cc1ccccc1)NC(=O)Cn1cnc2c(O)nc(N)nc21)S(=O)(=O)c1ccc(N)cc1`, 4730 nM. With `COc1ccc(S(=O)(=O)N(CC(C)C)C[C@@H](O)[C@H](Cc2ccccc2)NC(=O)Cn2cnc3c(C)ncnc32)cc1`, inhibition was half-maximal at 42 nM (IC50). In turn, `Cc1ncnc2c1ncn2CC(=O)N[C@@H](Cc1ccccc1)[C@H](O)CN(CC(C)C)S(=O)(=O)c1ccc([N+](=O)[O-])cc1` displayed an IC50 of 2530 nM. This IC50 lies about 60-fold higher than the previous one. As for `COc1ccc(S(=O)(=O)N(CC(C)C)C[C@@H](O)[C@H](Cc2ccccc2)NC(=O)Cn2cnc3c(O)ncnc32)cc1`, the IC50 amounted to 68 nM. On to `CC(C)CN(C[C@@H](O)[C@H](Cc1ccccc1)NC(=O)Cn1cnc2cncnc21)S(=O)(=O)c1ccc([N+](=O)[O-])cc1`, for which the midpoint of inhibition, the IC50, lay at 2580 nM. The molecule `COc1ccc(S(=O)(=O)N(CC(C)C)C[C@@H](O)[C@H](Cc2ccccc2)NC(=O)Cn2cnc3cnc(N)nc32)cc1` displayed an IC50 of 360 nM. Against the preceding molecule, the IC50 is about 7.2-fold lower. The molecule `COc1nc(N)nc2c1ncn2CC(=O)N[C@@H](Cc1ccccc1)[C@H](O)CN(CC(C)C)S(=O)(=O)c1ccc(N)cc1` yielded an IC50 of 190 nM. On to `COc1ccc(S(=O)(=O)N(CC(C)C)C[C@@H](O)[C@H](Cc2ccccc2)NC(=O)Cn2cnc3c(Cl)ncnc32)cc1`, for which the IC50 came out at 43 nM. `CC(C)CN(C[C@@H](O)[C@H](Cc1ccccc1)NC(=O)Cn1cnc2c(N)ncnc21)S(=O)(=O)c1ccc(N)cc1` showed an IC50 of 1240 nM. For `COc1ccc(S(=O)(=O)N(CC(C)C)C[C@@H](O)[C@H](Cc2ccccc2)NC(=O)Cn2cnc3c(Cl)nc(N)nc32)cc1`, the IC50 was 570 nM.
